From patent US5760092A, “Allocolchinones and uses thereof” (Brandeis University, priority 1996, dated 1998)
Where “and” joins values, the source holds several entries; their conditions need not be identical. Equal entries are not always repeated. Where two headings read alike, the source gives them in different places.

Legend:
[1] = system: MCF7/ADR-RES breast cancer cells; test: cells; type: cell-based
tubulin [2] = type: biochemical, calf
tubulin [3] = test: Binding to tubulin
[4] = system: HOP-62 non-small cell lung cancer cells
[5] = system: HOP-92 non-small cell lung cancer cells
[6] = system: OVCAR-8 ovarian cancer cells
[7] = system: SK-OV-3 ovarian cancer cells; conditions: log10 conc -6.0; 1 µM
A498 renal cancer cells [8] = conditions: log10 conc -6.0; 1 µM
[9] = system: CAKI-1 renal cancer cells
[10] = system: HS 578T breast cancer cells
[11] = system: HOP-62 non-small cell lung cancer cells; test: cells; conditions: Homo sapiens
[12] = system: HOP-92 non-small cell lung cancer cells; test: cells; conditions: Homo sapiens
SF-295 CNS cancer cells = test: cells; conditions: Homo sapiens
[13] = system: OVCAR-3 ovarian cancer cells; test: cells; conditions: Homo sapiens
[14] = system: SK-OV-3 ovarian cancer cells; test: cells; conditions: Homo sapiens
A498 renal cancer cells [15] = test: cells; conditions: Homo sapiens
[16] = system: CAKI-1 renal cancer cells; test: cells; conditions: Homo sapiens
[17] = system: RXF-393 renal cancer cells; test: cells; conditions: Homo sapiens

## COc1cc2c(c(OC)c1OC)-c1ccc(C(C)=O)cc1C(NC(C)=O)CC2 (stereo not drawn)
[1]
  GI50: 23 nM
[1]; Homo sapiens, MCF7
  GI50: 21.1 nM
[1]; Homo sapiens, MCF7, read-out: Percent Growth, log10 conc -4.0
  activity at 100 µM: -1%
[1]; Homo sapiens, MCF7, read-out: Percent Growth, log10 conc -5.0
  activity at 10 µM: -1%
[1]; Homo sapiens, MCF7, read-out: Percent Growth, log10 conc -6.0
  activity at 1 µM: 37%
[1]; Homo sapiens, MCF7, read-out: Percent Growth, log10 conc -8.0
  activity at 0.01 µM: 56%
[1]; Homo sapiens, MCF7, read-out: Percent Growth, log10 conc -9.0
  activity at 0.001 µM: 73%
[1]; Homo sapiens, MCF7, read-out: Percent Growth, log10 conc -10.0
  activity at 0.0001 µM: 91%
Tubulin [2]; drug to tubulin molar concentration ratio of about 0.030
  activity relative to colchicine (inhibition of microtubule assembly): about 20%
Tubulin [2]; in vitro
  inhibition of microtubule formation compared with colchicine: more active than colchicine
Tubulin [2]; in vitro, read-out: LC50 (inhibition of microtubule assembly in vitro)
  IC50: 300 nM
Tubulin [2]; increasing amounts of drug, tubulin 2.1×10^-5 M
  plateau turbidity: decrease in plateau turbidity
Tubulin [3]
  binding to tubulin: reversible
MOLT-4 leukemia cells; log10 conc -4.0, 100 µM
  Percent Growth: -5%
MOLT-4 leukemia cells; log10 conc -5.0
  Percent Growth: 5%
MOLT-4 leukemia cells; log10 conc -6.0, 1 µM
  Percent Growth: 5%
MOLT-4 leukemia cells; log10 conc -8.0
  Percent Growth: 34%
MOLT-4 leukemia cells; log10 conc -9.0, 0.001 µM
  Percent Growth: 32%
MOLT-4 leukemia cells; log10 conc -10.0, 0.0001 µM
  Percent Growth: 106%
[4]
  GI50: < 10 nM
[4]; log10 conc -6.0, 1 µM
  Percent Growth: 31%
[4]; log10 conc -7.0, 0.1 µM
  Percent Growth: 29%
[4]; log10 conc -8.0, 0.01 µM
  Percent Growth: 45%
[5]; log10 conc -6.0, 1 µM
  Percent Growth: 11%
[5]; log10 conc -7.0, 0.1 µM
  Percent Growth: 24% and 45%
[5]; log10 conc -8.0, 0.01 µM
  Percent Growth: 45% and 66%
SF-268 CNS cancer cells; log10 conc -4.0, 100 µM
  Percent Growth: 32%
SF-268 CNS cancer cells; log10 conc -5.0
  Percent Growth: 37%
SF-268 CNS cancer cells; log10 conc -6.0, 1 µM
  Percent Growth: 36% and 38%
SF-268 CNS cancer cells; log10 conc -7.0, 0.1 µM
  Percent Growth: 35% and 45%
SF-268 CNS cancer cells; log10 conc -9.0, 0.001 µM
  Percent Growth: 40%
SF-268 CNS cancer cells; log10 conc -10.0, 0.0001 µM
  Percent Growth: 92%
SF-539 CNS cancer cells; log10 conc -4.0, 100 µM
  Percent Growth: -27%
SF-539 CNS cancer cells; log10 conc -5.0
  Percent Growth: -31%
SF-539 CNS cancer cells; log10 conc -6.0, 1 µM
  Percent Growth: -24%
SF-539 CNS cancer cells; log10 conc -7.0, 0.1 µM
  Percent Growth: -24%
SF-539 CNS cancer cells; log10 conc -8.0
  Percent Growth: -16%
SF-539 CNS cancer cells; log10 conc -9.0, 0.001 µM
  Percent Growth: 19%
SF-539 CNS cancer cells; log10 conc -10.0, 0.0001 µM
  Percent Growth: 100%
SNB-19 CNS cancer cells; log10 conc -4.0, 100 µM
  Percent Growth: 6%
SNB-19 CNS cancer cells; log10 conc -5.0
  Percent Growth: 7%
SNB-19 CNS cancer cells; log10 conc -6.0, 1 µM
  Percent Growth: 36%
SNB-19 CNS cancer cells; log10 conc -8.0, 0.01 µM
  Percent Growth: 25% and 16%
SNB-19 CNS cancer cells; log10 conc -9.0, 0.001 µM
  Percent Growth: 63%
SNB-19 CNS cancer cells; log10 conc -10.0, 0.0001 µM
  Percent Growth: 99%
SNB-75 CNS cancer cells; log10 conc -4.0, 100 µM
  Percent Growth: 39%
SNB-75 CNS cancer cells; log10 conc -5.0
  Percent Growth: 43%
SNB-75 CNS cancer cells; log10 conc -6.0, 1 µM
  Percent Growth: 52% and 43%
SNB-75 CNS cancer cells; log10 conc -7.0, 0.1 µM
  Percent Growth: 46% and 50%
SNB-75 CNS cancer cells; log10 conc -8.0, 0.01 µM
  Percent Growth: 41% and 44%
SNB-75 CNS cancer cells; log10 conc -9.0, 0.001 µM
  Percent Growth: 17%
SNB-75 CNS cancer cells; log10 conc -10.0, 0.0001 µM
  Percent Growth: 96%
U251 CNS cancer cells; log10 conc -4.0, 100 µM
  Percent Growth: 4%
U251 CNS cancer cells; log10 conc -5.0
  Percent Growth: 3%
U251 CNS cancer cells; log10 conc -9.0, 0.001 µM
  Percent Growth: 23%
U251 CNS cancer cells; log10 conc -10.0, 0.0001 µM
  Percent Growth: 96%
[6]; log10 conc -4.0, 100 µM
  Percent Growth: -45%
[6]; log10 conc -5.0
  Percent Growth: -29%
[6]; log10 conc -6.0, 1 µM
  Percent Growth: 9%
[6]; log10 conc -9.0, 0.001 µM
  Percent Growth: 25%
[6]; log10 conc -10.0, 0.0001 µM
  Percent Growth: 96%
[7]
  Percent Growth: 10%
A498 renal cancer cells [8]
  Percent Growth: 25%
[9]
  TGI: > 100000 nM
[10]; log10 conc -6.0, 1 µM
  Percent Growth: 25%
[10]; log10 conc -8.0, 0.01 µM
  Percent Growth: 24%
[11]; HOP-62
  GI50: 7.68 nM
[11]; HOP-62, read-out: Percent Growth, log10 conc -4.0
  activity at 100 µM: 22%
[11]; HOP-62, read-out: Percent Growth, log10 conc -5.0
  activity at 10 µM: 20%
[11]; HOP-62, read-out: Percent Growth, log10 conc -6.0
  activity at 1 µM: 44%
[11]; HOP-62, read-out: Percent Growth, log10 conc -7.0
  activity at 0.1 µM: 46%
[11]; HOP-62, read-out: Percent Growth, log10 conc -8.0
  activity at 0.01 µM: 47%
[11]; HOP-62, read-out: Percent Growth, log10 conc -9.0
  activity at 0.001 µM: 77%
[11]; HOP-62, read-out: Percent Growth, log10 conc -10.0
  activity at 0.0001 µM: 101%
[12]; HOP-92
  GI50: 0.618 nM
[12]; HOP-92, read-out: Percent Growth, log10 conc -4.0
  activity at 100 µM: 57%
[12]; HOP-92, read-out: Percent Growth, log10 conc -5.0
  activity at 10 µM: 53%
[12]; HOP-92, read-out: Percent Growth, log10 conc -9.0
  activity at 0.001 µM: 36%
[12]; HOP-92, read-out: Percent Growth, log10 conc -10.0
  activity at 0.0001 µM: 94%
SF-295 CNS cancer cells; SF-295, read-out: Percent Growth, log10 conc -4.0
  activity at 100 µM: -14%
SF-295 CNS cancer cells; SF-295, read-out: Percent Growth, log10 conc -5.0
  activity at 10 µM: -10%
SF-295 CNS cancer cells; SF-295, read-out: Percent Growth, log10 conc -8.0
  activity at 0.01 µM: 6%
SF-295 CNS cancer cells; SF-295, read-out: Percent Growth, log10 conc -9.0
  activity at 0.001 µM: 16%
SF-295 CNS cancer cells; SF-295, read-out: Percent Growth, log10 conc -10.0
  activity at 0.0001 µM: 104%
[13]; OVCAR-3, read-out: Percent Growth, log10 conc -4.0
  activity at 100 µM: 5%
[13]; OVCAR-3, read-out: Percent Growth, log10 conc -5.0
  activity at 10 µM: 5%
[13]; OVCAR-3, read-out: Percent Growth, log10 conc -9.0
  activity at 0.001 µM: -11%
[13]; OVCAR-3, read-out: Percent Growth, log10 conc -10.0
  activity at 0.0001 µM: 97%
[14]; SK-OV-3, read-out: Percent Growth, log10 conc -4.0
  activity at 100 µM: 9%
[14]; SK-OV-3, read-out: Percent Growth, log10 conc -5.0
  activity at 10 µM: 15%
[14]; SK-OV-3, read-out: Percent Growth, log10 conc -6.0
  activity at 1 µM: 14%
[14]; SK-OV-3, read-out: Percent Growth, log10 conc -7.0
  activity at 0.1 µM: 19%
[14]; SK-OV-3, read-out: Percent Growth, log10 conc -8.0
  activity at 0.01 µM: 12%
[14]; SK-OV-3, read-out: Percent Growth, log10 conc -9.0
  activity at 0.001 µM: 44%
[14]; SK-OV-3, read-out: Percent Growth, log10 conc -10.0
  activity at 0.0001 µM: 95%
A498 renal cancer cells [15]; A498, read-out: Percent Growth, log10 conc -4.0
  activity at 100 µM: 1%
A498 renal cancer cells [15]; A498, read-out: Percent Growth, log10 conc -5.0
  activity at 10 µM: 3%
A498 renal cancer cells [15]; A498, read-out: Percent Growth, log10 conc -9.0
  activity at 0.001 µM: 72%
A498 renal cancer cells [15]; A498, read-out: Percent Growth, log10 conc -10.0
  activity at 0.0001 µM: 77%
[16]; CAKI-1
  GI50: 40.1 nM
[16]; CAKI-1, read-out: Percent Growth, log10 conc -4.0
  activity at 100 µM: 37%
[16]; CAKI-1, read-out: Percent Growth, log10 conc -5.0
  activity at 10 µM: 39%
[16]; CAKI-1, read-out: Percent Growth, log10 conc -6.0
  activity at 1 µM: 36%
[16]; CAKI-1, read-out: Percent Growth, log10 conc -7.0
  activity at 0.1 µM: 35%
[16]; CAKI-1, read-out: Percent Growth, log10 conc -8.0
  activity at 0.01 µM: 73%
[17]; RXF 393, read-out: LC50
  CC50: > 1000 nM
[17]; RXF 393, read-out: Percent Growth, log10 conc -6.0
  activity at 1 µM: 61%
[17]; RXF 393, read-out: Percent Growth, log10 conc -7.0
  activity at 0.1 µM: 55%
[17]; RXF 393, read-out: Percent Growth, log10 conc -8.0
  activity at 0.01 µM: 35%
[17]; RXF 393, read-out: Percent Growth, log10 conc -9.0
  activity at 0.001 µM: 42%
[17]; RXF 393, read-out: Percent Growth, log10 conc -10.0
  activity at 0.0001 µM: 101%
